Where a name gives a salt, the structure may show the parent alone.
Tests used:
[1] = test system: GC patient-derived xenografts (PDX); assay: Tumor growth inhibition in GC patient-derived xenograft (PDX) models; type: in vivo, NOD/SCID mice; settings: for TGIs (%): gimatecan 0.2 mg/kg daily oral gavage, irinotecan 20 mg/kg weekly i.p., 3 weeks; for antitumor activity compared with control groups: all five xenografts
Experimental: Establishment and serial passaging of GC patient-derived xenografts (PDX) models were as previously described. All procedures were performed under sterile conditions at an SPF facility and carried out in accordance with the guide for the Care and Use of Laboratory Animals of the National Institutes of Health. Animal experiments were approved by an independent ethics committee of Peking University Cancer Hospital.
Five PDX tissues were subcutaneously inoculated into the flanks of 6-week-old female non-obese diabetic/severe combined immunodeficiency (NOD/SCID) mice. When tumors reached 150–250 mm^3, mice were randomized to three groups (N = 5/group) with similar tumor volumes: (1) control group (physiological saline 100 µl daily, by orally gavage), (2) gimatecan group (gimatecan 0.2 mg/kg daily, by orally gavage) and (3) irinotecan group (irinotecan 20 mg/kg via weekly intraperitoneal injection). All animals were treated for 3 weeks. Tumor size and body weight were measured twice a week, and tumor volume was calculated using the following formula: V = (L × W^2)/2 (V, volume; L, length; W, width). Tumor growth inhibition (TGI) was calculated using the following formula: TGI = 1 − ΔT/ΔC × 100% (ΔT = tumor volume changes of the drug treated group, ΔC = tumor volume changes of the control group on the final day of the study).
A PDX model was established by subcutaneously transplanting tumor tissues of a patient into NOD/SCID mice and PDX 1–5 indicated PDX models from 5 different GC patients. PDX tissues were subcutaneously inoculated into mice, and when the tumor size reached 150–250 mm^3, mice (n = 5 in each group) were treated with buffer control or inhibitors. Tumor volumes were presented as mean ± SD. The antitumor activity is depicted by tumor growth inhibition (TGI). […] (ΔT = tumor volume change of the drug-treated group, ΔC = tumor volume change of the control group on the final day of the study). *p < 0.05, **p < 0.01, ***p < 0.001. b Immunohistochemical staining for Ki-67 of xenografts on day 22 of treatment from four PDX models. The ki-67 index, marker of cell proliferation, was calculated as the proportion of positive tumor cell nuclei in all tumor cells examined and labeled in red in the images. Scale bar represents 100 µm TEXT PRINTED IN THE PICTURE: (b) Vehicle: PDX 2: 100%; PDX 3: 70%; PDX 4: 70%; PDX 5: 40% | (b) Irinotecan: PDX 2: 60%; PDX 3: 70%; PDX 4: 60%; PDX 5: 50% | (b) Gimatecan: PDX 2: 60%; PDX 3: 10%; PDX 4: 40%; PDX 5: 10% DOUBTS OF THE COPYIST ABOUT THIS PICTURE: Vehicle, PDX 3: 70% or 20% (blurred red print on the image) / Vehicle, PDX 4: 70% or 20% / Vehicle, PDX 5: 40%, first digit blurred / Irinotecan, PDX 2: 60% or 80% or 50% / Irinotecan, PDX 3: 70% or 20% / Irinotecan, PDX 4: 60% or 50% or 80% / Irinotecan, PDX 5: 50% or 60% or 30% / Gimatecan, PDX 2: 60% or 50% or 80% / Gimatecan, PDX 4: 40%, first digit blurred / The measure of the percentages in panel b is not printed in the picture

DNA TopI = assay: Western blot of DNA TopI expression in GC cells; type: cell-based, human; settings: SNU-1, HGC27 and NCI-N87; 48 h; gimatecan at 100 nM or more; irinotecan even at high concentrations
Experimental: SNU-1, HGC27 and NCI-N87 cells were starved in serum-free medium overnight, exposed to inhibitors for 48 h and harvested at 70–80% confluence. Total protein was extracted from cells or xenograft tissues on ice, using RIPA Lysis Buffer (Beyotime, Shanghai, China) supplemented with complete protease inhibitor and phosphatase inhibitor cocktail (Roche, Basel, Switzerland). Protein concentration was measured using a BCA Protein Assay Kit (Beyotime, Shanghai, China), and 50 μg protein from each sample was separated by 10% SDS-PAGE. After transfer to nitrocellulose membranes (GE Healthcare, Piscataway, NJ), samples were incubated with corresponding primary antibodies diluted in 5% BSA at 4 °C overnight and then with secondary antibodies at room temperature for 1 h. Proteins were visualized with a chemiluminescent detection system (GE Healthcare), using ECL plus Western blot reagents (GE Healthcare). Western-blotting bands were quantified and normalized by ImageJ software.
Cells were starved in serum-free medium overnight, exposed to gimatecan or irinotecan for 48 h and harvested at 70–80% confluence. Total protein of SNU-1 and NCI-N87 was extracted and the expression of TopI, pAKT, pMEK, pERK, p-p38 MAPK and pJNK2 were assessed by western-blotting followed by quantification and normalization by ImageJ. All data are mean ± SD of three independent experiments. Compared with controls, *p < 0.05

Compound	TGIs (%) ([1]; PDX model 1)	TGIs (%) ([1]; PDX model 2)	TGIs (%) ([1]; PDX model 3)	TGIs (%) ([1]; PDX model 4)	TGIs (%) ([1]; PDX model 5)	antitumor activity compared with control groups [1]	expression of DNA TopI (DNA TopI)
CC[C@@]1(O)C(=O)OCc2c1cc1n(c2=O)Cc2c-1nc1ccccc1c2/C=N/OC(C)(C)C [Gimatecan, 7-t-butoxyiminomethylcamptothecin]	110.1%	106.6%	84.4%	91.7%	108.7%	significant antitumor activity	significantly inhibited
CCc1c2c(nc3ccc(OC(=O)N4CCC(N5CCCCC5)CC4)cc13)-c1cc3c(c(=O)n1C2)COC(=O)[C@]3(O)CC [Irinotecan, irinotecan hydrochloride]	75.4%	76.1%	24.1%	15.1%	40.6%	significant antitumor activity	little effect

Source: article PMC5729429, “Gimatecan exerts potent antitumor activity against gastric cancer in vitro and in vivo via AKT and MAPK signaling pathways” (Journal of Translational Medicine, 2017)
